Test results: patent US6455510B1, “Chemical Compounds” (SmithKline Beecham Corporation, priority 1997, dated 2002)

What was measured:
[1] = target: T1, human adenosine A3 receptor (Homo sapiens, UniProt P0DMS8); test: Reporter gene assay (CRE/SPAP) in CHO cells, agonist activity, adenosine A3; type: cell-based; settings: CHO cells stably transfected with human adenosine A3 receptor; inhibition of forskolin-stimulated SPAP production; potency relative to NECA=1
T1 construct: expressed in transfected cells; host or cells: Chinese hamster ovary (CHO) cells containing CRE/SPAP/HYG reporter elements
T1 sequence (P0DMS8 1-318): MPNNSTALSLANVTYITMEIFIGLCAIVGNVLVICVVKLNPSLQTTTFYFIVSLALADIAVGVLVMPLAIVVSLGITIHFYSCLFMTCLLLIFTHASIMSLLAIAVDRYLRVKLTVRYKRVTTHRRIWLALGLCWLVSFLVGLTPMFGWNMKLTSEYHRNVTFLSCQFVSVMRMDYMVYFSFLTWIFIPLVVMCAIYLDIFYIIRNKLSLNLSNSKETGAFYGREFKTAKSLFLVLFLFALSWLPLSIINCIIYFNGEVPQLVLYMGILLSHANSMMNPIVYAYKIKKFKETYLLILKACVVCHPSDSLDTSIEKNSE
Description: (§1) Reporter Gene Experiments
(§2) Agonist activity was measured in Chinese hamster ovary (CHO) cells containing the CRE/SPAP/HYG (CRE=cyclic AMP response element; HYG=hygromycin resistance; SPAP=secreted placental alkaline phosphatase) reporter gene elements, which upon stimulation of cAMP levels produced SPAP. A cell line was used, which was stably transfected with either the human adenosine Al receptor or the human adenosine A3 receptor in addition to the above elements. Cells were plated out in 96-well plates in culture medium and incubated at 37° C. for 1 hour. For measurement of potency, agonists were added to the appropriate wells at a concentration range of approximately 10^−10-10^−5M. 15 Min later, cAMP levels were stimulated by addition of a maximal concentration of forskolin. All cells were then incubated for a further 5 hours at 37° C., and cooled to room temperature, after which a substrate for the phosphatase (para-nitrophenol phosphate, pNPP), which is converted by SPAP to a coloured reagent) was then added and the 96-well plates were read in a plate reader. From these readings, the concentration-dependence of the inhibition by the agonist for forskolin-stimulated SPAP production can be calculated. One of the agonists tested on each 96-well plate was the standard non-selective agonist, N-ethylcarboxamidoadenosine (NECA), and the potency of all test agonists is expressed relative to that of the NECA standard.
(§3) (ECR=equipotent concentration ratio relative to NECA=1)

[2] = target: T2, human adenosine A1 receptor (Homo sapiens, UniProt P30542); test: Reporter gene assay (CRE/SPAP) in CHO cells, agonist activity, adenosine A1; type: cell-based; settings: CHO cells stably transfected with human adenosine A1 receptor; inhibition of forskolin-stimulated SPAP production; potency relative to NECA=1
T2 construct: expressed in transfected cells; host or cells: Chinese hamster ovary (CHO) cells containing CRE/SPAP/HYG reporter elements
T2 sequence (P30542 1-326): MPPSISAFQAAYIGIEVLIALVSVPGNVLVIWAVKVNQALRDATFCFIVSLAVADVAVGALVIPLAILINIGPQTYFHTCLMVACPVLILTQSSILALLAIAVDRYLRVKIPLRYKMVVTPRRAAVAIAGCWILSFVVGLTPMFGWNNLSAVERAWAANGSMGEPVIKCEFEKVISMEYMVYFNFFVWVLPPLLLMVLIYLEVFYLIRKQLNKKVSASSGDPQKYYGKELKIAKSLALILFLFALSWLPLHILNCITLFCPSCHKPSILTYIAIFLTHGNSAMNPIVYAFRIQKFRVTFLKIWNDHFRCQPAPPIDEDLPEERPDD
Description: as §1
as §2, with “For measurement of potency, agonists were added to the appropriate wells at a concentration range of approximately 10^−10-10^−5M.” left out, “calculated.” for “calculated. One of the agonists tested on each 96-well plate was the standard non-selective agonist, N-ethylcarboxamidoadenosine (NECA), and the potency of all test agonists is expressed relative to that of the NECA standard.”
as §3

| Compound | A3 Receptor, Reporter Gene Assay ECR (equipotent concentration ratio relative to NECA=1) [1] | A1 Receptor, Reporter Gene Assay ECR (equipotent concentration ratio relative to NECA=1) [2] |
| --- | --- | --- |
| Cc1nc(NC2CCOCC2)c2ncn([C@@H]3O[C@H](CF)[C@@H](O)[C@H]3O)c2n1 [Example 2, 5′-Deoxy-5′-fluoro-2-methyl-N-(tetrahydro-pyran-4-yl)-adenosine] | >226.00 | 11.8 |
| O[C@@H]1[C@H](O)[C@@H](CF)O[C@H]1n1cnc2c(NC3CCOCC3)nc(Cl)nc21 [Example 3, 2-Chloro-5′-deoxy-5′-fluoro-N-(tetrahydro-pyran-4-yl)-adenosine] | >139.00 | 2.41 |
| O[C@@H]1[C@H](O)[C@@H](C(F)(F)F)O[C@H]1n1cnc2c(NC3CCOCC3)nc(Cl)nc21 [Example 4, (2R,3 R,4S,5S)-2-[2-Chloro-6-(tetrahydro-pyran-4-ylamino)-purin-9-yl]-5-trifluoromethyl-tetrahydro-furan-3,4-diol] | – | 190.10 |
| CC(F)(F)[C@H]1O[C@@H](n2cnc3c(NC4CC5CCC4C5)ncnc32)[C@H](O)[C@@H]1O (stereo partly drawn) [Example 5, (2R,3R,4S,5S)-2-[6-(Bicyclo[2.2.1]hept-2-ylamino)-purin-9-yl]-5-(1,1-difluoro-ethyl)-tetrahydro-furan-3,4-diol] | >257.00 | 7.14 |
| O[C@@H]1[C@H](O)[C@@H](CF)O[C@H]1n1cnc2c(N[C@@H]3CCC[C@H]3F)nc(Cl)nc21 [Example 6, 2-Chloro-5-deoxy-5′-fluoro-N-(2R-fluoro-cyclopent-(R)-yl)-adenosine] | >156.00 | – |
| O[C@@H]1[C@H](O)[C@@H](CF)O[C@H]1n1cnc2c(N[C@H]3CCC[C@@H]3O)nc(Cl)nc21 [Example 7, 2-Chloro-5′-deoxy-5′-fluoro-N-(2S-hydroxy-cyclopent-(S)-yl)adenosine] | >91.00 | – |
| O[C@@H]1[C@H](O)[C@@H](CF)O[C@H]1n1cnc2c(NC3CC4CCC3C4)nc(Cl)nc21 (stereo partly drawn) [Example 8, N-(endo-Bicyclo[2.2.1]hept-2-yl)-2-chloro-5′-deoxy-5′-fluoro-adenosine] | >91.00 | – |
| CCOC(=O)N1CCC(Nc2nc(Cl)nc3c2ncn3[C@@H]2O[C@H](CF)[C@@H](O)[C@H]2O)CC1 [Example 9, 4-[2-Chloro-9-(5S-fluoromethyl-3R,4S-dihydroxy-tetrahydro-furan-2R-yl)-9H-purin-6-ylamino]-piperidine-1-carboxylic acid ethyl ester] | >129.00 | 3.00 |
| CC(=O)N1CCC(Nc2nc(Cl)nc3c2ncn3[C@@H]2O[C@H](CF)[C@@H](O)[C@H]2O)CC1 [Example 10, 1-{4-[2-Chloro-9-(5S-fluoromethyl-3R,4S-dihydrox-tetrahydro-furan-2R-yl)-9H-purin-6-ylamino]-piperidin-1-yl}-ethanone] | >162.00 | 66.80 |
| O[C@@H]1[C@H](O)[C@@H](CF)O[C@H]1n1cnc2c(NC3CC4CCC3C4)ncnc21 (stereo partly drawn) [Example 11, N-(endo-Bicyclo[2.2.1]hept-2-yl)-5′-deoxy-5′-fluoro-adenosine] | >152.00 | – |
| O[C@@H]1[C@H](O)[C@@H](CF)O[C@H]1n1cnc2c(N[C@H]3CCC[C@@H]3O)ncnc21 [Example 13, 5′-Deoxy-5′-fluoro-N-(2S-hydroxy-cyclopent-(S)-yl)-adenosine] | >152.00 | – |
| CCOC(=O)N1CCC(Nc2ncnc3c2ncn3[C@@H]2O[C@H](CF)[C@@H](O)[C@H]2O)CC1 [Example 14, 4-[9-(5S-Fluoromethyl-3R,4S-dihydroxy-tetrahydro-furan-2R-yl)-9H-purin-6-ylamino]-piperidine-1-carboxylic acid ethyl ester] | >435.00 | 1.68 |
| O=S1(=O)CCC(Nc2nc(Cl)nc3c2ncn3[C@@H]2O[C@H](CF)[C@@H](O)[C@H]2O)CC1 [Example 15, 2-Chloro-5′-deoxy-N-(1,1-dioxo-hexahydro-1δ6-thiopyran-4-yl)-5′-fluoro-adenosine] | >435.00 | 9.16 |
| OCC(O)CNc1nc(Cl)nc2c1ncn2[C@@H]1O[C@H](CF)[C@@H](O)[C@H]1O (stereo partly drawn) [Example 16, 2-Chloro-5′-deoxy-N-(2,3-dihydroxy-propyl)-5′-fluoro-adenosine] | >240.00 | 7.29 |
| CC(F)(F)[C@H]1O[C@@H](n2cnc3c(NCC4CC4)ncnc32)[C@H](O)[C@@H]1O [Example 17, (2R,3R,4S,5S)-2-[6-(Cyclopropylmethyl-amino)-purin-9-yl]-(1,1-difluoro-ethyl)-tetrahydro-furan-3,4-diol] | >353.00 | 22.30 |
| CNS(=O)(=O)CCNc1ncnc2c1ncn2[C@@H]1O[C@H](CF)[C@H](O)[C@H]1O [Example 18, 2-[9-(5S-Fluoromethyl-3R,4R-dihydroxy-tetrahydro-furan-2R-yl)-9H-purin-6-ylamino]-ethanesulfonic acid methylamide] | >353.00 | 0.71 |
| CC(C)(C)CNc1ncnc2c1ncn2[C@@H]1O[C@H](CF)[C@@H](O)[C@H]1O [Example 19, 5′-Deoxy-5′-fluoro-N-(2,2-dimethyl-propyl)-adenosine] | >353.00 | 3.51 |
| CC(C)(C)Nc1ncnc2c1ncn2[C@@H]1O[C@H](CF)[C@@H](O)[C@H]1O [Example 20, N-tert-Butyl-5′-deoxy-5′-fluoro-adenosine] | >353.00 | 8.17 |
| O[C@@H]1[C@H](O)[C@@H](CF)O[C@H]1n1cnc2c(NC3CCSCC3)ncnc21 [Example 21, 5′-Deoxy-5′-fluoro-N-(tetrahydro-thiopyran-4-yl)-adenosine] | >353.00 | 1.64 |
| CC(C)CNc1nc(Cl)nc2c1ncn2[C@@H]1O[C@H](CF)[C@@H](O)[C@H]1O [Example 22, 2-Chloro-5′-deoxy-5′-fluoro-N-isobutyl-adenosine] | >145.00 | 3.30 |
| O[C@@H]1[C@H](O)[C@@H](CF)O[C@H]1n1cnc2c(NC3CC4CCC3C4)nc(Cl)nc21 (stereo partly drawn) [Example 25, N-(exo-Bicyclo[2.2.1]hept-2-yl)-2-chloro-5′-deoxy-5′-fluoro-adenosine] | >151.00 | – |
| O=S1(=O)CCC(Nc2ncnc3c2ncn3[C@@H]2O[C@H](CF)[C@@H](O)[C@H]2O)CC1 [Example 27] | >162.00 | – |
